BigSolDB 2.1

O=C1OC(=O)[C@H]2[C@@H]1[C@@H]1C=C[C@H]2O1
solubility (mole fraction)
Settings | 278.15 K | 283.15 K | 288.15 K | 293.15 K | 298.15 K | 303.15 K | 308.15 K | 313.15 K | 318.15 K | 323.15 K
in 1,4-dioxane | – | – | 0.0238 | 0.0288 | 0.0342 | 0.0414 | 0.052 | 0.0647 | 0.0857 | 0.134
in DMF | 0.106 | 0.117 | 0.126 | 0.138 | 0.15 | 0.164 | 0.181 | 0.192 | 0.218 | 0.238
in NMP | 0.133 | 0.144 | 0.155 | 0.17 | 0.184 | 0.199 | 0.211 | 0.235 | 0.256 | 0.277
in acetone | 0.038 | 0.0434 | 0.0483 | 0.0556 | 0.0629 | 0.0717 | 0.0818 | 0.0932 | 0.107 | 0.125
in acetonitrile | 0.0308 | 0.0353 | 0.0393 | 0.0453 | 0.0508 | 0.0576 | 0.0667 | 0.078 | 0.0887 | 0.109
in ethyl acetate | 0.0157 | 0.0179 | 0.0207 | 0.0234 | 0.0275 | 0.031 | 0.0363 | 0.0414 | 0.0482 | 0.0569
in isobutyl acetate | 0.00929 | 0.011 | 0.0122 | 0.0143 | 0.0165 | 0.0189 | 0.022 | 0.0248 | 0.0283 | 0.0324
in isopentyl acetate | 0.00727 | 0.00841 | 0.00971 | 0.011 | 0.0129 | 0.0147 | 0.0168 | 0.0196 | 0.0214 | 0.0251
in isopropyl acetate | 0.0101 | 0.0126 | 0.014 | 0.0164 | 0.0191 | 0.022 | 0.0255 | 0.0295 | 0.0335 | 0.0395
in methyl acetate | 0.0236 | 0.0281 | 0.031 | 0.0368 | 0.042 | 0.0496 | 0.0582 | 0.0687 | 0.0806 | 0.0965
in n-butyl acetate | 0.00989 | 0.0115 | 0.0129 | 0.0149 | 0.0172 | 0.0196 | 0.0226 | 0.0258 | 0.0285 | 0.0339
in n-pentyl acetate | 0.00784 | 0.00916 | 0.0105 | 0.012 | 0.0137 | 0.0158 | 0.018 | 0.0205 | 0.0231 | 0.0264
in n-propyl acetate | 0.012 | 0.0135 | 0.0159 | 0.0179 | 0.021 | 0.0244 | 0.0277 | 0.033 | 0.0388 | 0.0435
